Experimental data from PubChem BioAssay (NCI).
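Dose response: 5 concentrations. Exposure: 48 h. Format: 96-well plates. Endpoint: linear interpolation; highest concentration if not reached. The concentration for 50% growth inhibition is given as GI50. Definition used: TGI = concentration required for complete inhibition of growth.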

Experiments:
Assay in all cases: inhibition of tumour cell growth, NCI panel, 48 h
786-0 renal = tested on: 786-0 renal
A549 NSCLC = tested on: A549 NSCLC
ACHN renal = tested on: ACHN renal
CAKI-1 renal = tested on: CAKI-1 renal
IGROV1 ovarian = tested on: IGROV1 ovarian
MCF7 breast = tested on: MCF7 breast
MOLT-4 leukemia = tested on: MOLT-4 leukemia
RXF 393 renal = tested on: RXF 393 renal
SF-268 CNS = tested on: SF-268 CNS
T-47D breast = tested on: T-47D breast

| SMILES | GI50 (786-0 renal) [µM] | TGI (786-0 renal) [µM] | GI50 (A549 NSCLC) [µM] | TGI (A549 NSCLC) [µM] | GI50 (ACHN renal) [µM] | TGI (ACHN renal) [µM] | GI50 (CAKI-1 renal) [µM] | TGI (CAKI-1 renal) [µM] | GI50 (IGROV1 ovarian) [µM] | TGI (IGROV1 ovarian) [µM] | GI50 (MCF7 breast) [µM] | TGI (MCF7 breast) [µM] | GI50 (MOLT-4 leukemia) [µM] | TGI (MOLT-4 leukemia) [µM] | GI50 (RXF 393 renal) [µM] | TGI (RXF 393 renal) [µM] | GI50 (SF-268 CNS) [µM] | TGI (SF-268 CNS) [µM] | GI50 (T-47D breast) [µM] | TGI (T-47D breast) [µM] |
| --- | --- | --- | --- | --- | --- | --- | --- | --- | --- | --- | --- | --- | --- | --- | --- | --- | --- | --- | --- | --- |
| CCN(Cc1ccccc1)C1CCN(Cc2cc(Br)ccc2O)CC1 | 35.9 | > 100 | 69.6 | > 100 | 79.7 | > 100 | 57.9 | > 100 | > 100 | > 100 | 27.8 | > 100 | 32.6 | > 100 | 17.5 | 94.6 | 59.7 | > 100 | 24 | > 100 |
| CCc1ccc(CCC(=O)Nc2ncc(Cc3ccc(Cl)cc3)s2)o1 | 0.582 | > 100 | 0.496 | > 100 | 0.66 | > 100 | 0.451 | > 100 | 0.549 | > 100 | 0.328 | > 100 | 0.53 | > 100 | 0.226 | 0.675 | 1.68 | > 100 | 1.48 | > 100 |
| CC1=C(c2ccccc2)C(O)(c2ccccc2)C(C)C1=O (stereo not given) | 18.9 | > 100 | 32.5 | > 100 | 35.6 | > 100 | 24.6 | > 100 | 10.3 | > 100 | 13 | > 100 | 21.6 | > 100 | 17.4 | > 100 | 27.4 | > 100 | 23.1 | > 100 |
| CCOC(=O)c1cc2c(cc1Cl)SC(=Nc1ccccc1)N(S(=O)(=O)c1ccc(Cl)cc1)S2(=O)=O | 13.5 | 27.5 | 26.1 | 68 | 14.5 | 28.8 | 15.7 | 33.7 | 8.11 | 22.5 | 4.38 | 15.9 | 11.7 | 37.3 | 11.3 | 36.1 | 12.1 | 32 | 3.84 | 23.4 |
| COc1ccc(-c2nc(-c3ccc(C)cc3)cn3ccnc23)cc1 | 8.6 | 45.6 | 3.97 | > 50 | 7.58 | > 50 | 4.78 | > 50 | 2.43 | > 50 | 3.05 | > 50 | 22.3 | > 50 | 2.41 | 18.5 | 3.06 | > 50 | > 50 | > 50 |
| Nc1nc([Se])c2ncn(C3OC(CO)C(O)C3O)c2n1 (stereo not given) | 17.2 | > 100 | 25.1 | > 100 | 20.8 | > 100 | 22.5 | > 100 | 25.9 | > 100 | 4.09 | > 100 | 3.4 | > 100 | > 100 | > 100 | 9.27 | > 100 | 28.8 | > 100 |
| Cc1ccccc1NC(=O)c1sc2nc(C)c(C(=O)/C=C/c3ccccc3)cc2c1N | 0.82 | 1.77 | 1.58 | 9.7 | 0.927 | 1.86 | 1.08 | 2.68 | 0.953 | 2.08 | 1.5 | 8.69 | 1.57 | > 50 | 0.821 | 1.6 | 1.2 | 3.58 | 0.975 | 2.34 |
| CCC(C)[C@H](NC(=O)Nc1cc(C(F)(F)F)cc(C(F)(F)F)c1)C(=O)N[C@@H](Cc1cn(C)cn1)C(=O)OC (stereo not given in full) | 1.19 | 1.88 | 1.33 | 1.85 | 1.4 | 2.01 | 2.08 | 4 | 1.04 | 2.06 | 0.513 | 1.08 | 0.873 | 2.24 | 0.523 | 0.98 | 0.61 | 1.16 | 0.912 | 1.74 |
